From publication PMC9147192, “Small Molecule Arranged Thermal Proximity Coaggregation (smarTPCA)—A Novel Approach to Characterize Protein–Protein Interactions in Living Cells by Similar Isothermal Dose–Responses” (International Journal of Molecular Sciences, 2022)
“And” between values parts separate entries of the source, which are not always exact repeats. Equal entries are not always repeated. Where two headings read alike, the source gives them in different places.

How the values were obtained:
MAPKAPK2 phosphorylation = experiment: MAPKAPK2 phosphorylation-dependent electrophoretic mobility shift (PDEMS) immunoblot, living HL-60 cells; settings: 20 µM inhibitor
MAPKAPK3 = MAPKAPK3 (Homo sapiens, UniProt Q16644); experiment: CETSA in living HL-60 cells, immunoblot; assay type: cell-based
MAPKAPK3, sequence (Q16644 whole entry): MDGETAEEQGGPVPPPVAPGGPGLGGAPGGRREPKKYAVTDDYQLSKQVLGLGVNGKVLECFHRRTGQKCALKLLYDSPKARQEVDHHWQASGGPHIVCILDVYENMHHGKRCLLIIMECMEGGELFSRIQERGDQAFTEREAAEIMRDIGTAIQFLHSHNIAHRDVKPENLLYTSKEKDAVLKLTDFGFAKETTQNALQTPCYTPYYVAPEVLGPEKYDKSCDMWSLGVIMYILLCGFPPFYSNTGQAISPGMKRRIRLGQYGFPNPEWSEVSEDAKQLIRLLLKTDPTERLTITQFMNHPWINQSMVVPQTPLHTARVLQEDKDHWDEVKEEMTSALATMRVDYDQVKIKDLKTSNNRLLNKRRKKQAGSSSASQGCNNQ
Experimental: (§1) First, we conducted CETSA experiments according to Jafari et al.. […] Subsequent SDS-PAGE and immunoblotting were performed according to optimized conditions allowing for parallel detection of MAPK14, MAPKAPK2, MAPKAPK3, and GSK-3α (Supplementary Figure S1).
(§2) HL-60 cells (ATCC No. CCL-240) were expanded to about […] in 80 mL cell culture medium (RPMI-1640 supplemented with 10% (v/v) FBS, 1% (v/v) penicillin-streptomycin and 1% (v/v) L-glutamine solution) and divided into four aliquots (20 mL each, 25 million cells per flask). […] The same volume of DMSO was added to the remaining aliquot serving as the vehicle (DMSO) control. After incubation (1 h, 37 °C, 5% CO2, in cell culture CO2 incubator), the cell suspensions were transferred into 50 mL conical tubes, cell number and viability were determined, and after centrifugation (300 relative centrifugal force (rcf), 3 min, room temperature (r.t.)), the supernatants were completely removed and discarded. The cells were washed using 20 mL Dulbecco’s phosphate-buffered saline (PBS), respectively, by resuspension and centrifugation (300 rcf, 3 min, r.t.). After the complete removal of the supernatants, the cells were transferred into pre-weighed 2 mL Eppendorf tubes using 0.5 mL PBS (r.t.), respectively, for resuspending. After centrifugation (300 rcf, 3 min, r.t.) and removing as much as possible of the supernatants, the cell wet weights were determined.
(§3) The suspensions were shortly centrifuged (1 s or less) using a benchtop centrifuge that was equipped with an inset for PCR tubes to release trapped air and to achieve an even liquid level without pelleting the cells. The 100 µL cell suspensions were then temperature treated by a 7 min pre-incubation at r.t., a 3 min incubation at the following different temperatures in the PCR cycler (DNA Engine Tetrad 2, lid temperature 70 °C, gradient block 1: 36–55 °C, gradient block 2: 48–67 °C), and a 3 min post-incubation at r.t. in a metal heating block for uniform heat dissipation.
(§4) The cells were lysed by four freeze/thaw cycles consisting of thawing the samples (in a heat block set to 25 °C and shaking at 1250 rpm) accompanied by mixing them several times by inversion and then shock freezing them again in liquid nitrogen. The resulting lysates were kept cold (on ice or 4 °C) from then on. After centrifugation (20,000 rcf, 30 min, 4 °C) to pellet the cell debris together with precipitated and aggregated proteins, the supernatants were recovered and, after determining the total protein concentration (Pierce 660 nm Protein Assay, BSA as standard), the resulting cell extracts containing the fraction of soluble, non-denatured proteins were shock frozen in liquid nitrogen and stored at −80 °C.
(§5) For each sample set comprising either ten temperature range samples or ten compound concentration range samples, the same volume of the cell extracts containing the fraction of soluble, non-denatured proteins was used for further analysis. This volume was determined using the two lowest temperature samples (36.5 and 41.2 °C) per temperature range sample set so that they contained an average of 5 µg total protein (e.g., 2.78 µL for all temperature range samples of a sample set whose two lowest temperature samples contain an average of 1.8 mg/mL protein). For the compound concentration range experiments, all samples of a set were used for averaging.

GSK-3α = target: T1, GSK-3α (Homo sapiens, UniProt P49840); experiment: CETSA in living HL-60 cells, immunoblot; assay type: cell-based
T1 construct: parallel detection of MAPK14, MAPKAPK2, MAPKAPK3, and GSK-3α; endogenous in cells; host or cells: HL-60 (ATCC CCL-240), living cells or cell extract
T1 sequence (P49840 whole entry): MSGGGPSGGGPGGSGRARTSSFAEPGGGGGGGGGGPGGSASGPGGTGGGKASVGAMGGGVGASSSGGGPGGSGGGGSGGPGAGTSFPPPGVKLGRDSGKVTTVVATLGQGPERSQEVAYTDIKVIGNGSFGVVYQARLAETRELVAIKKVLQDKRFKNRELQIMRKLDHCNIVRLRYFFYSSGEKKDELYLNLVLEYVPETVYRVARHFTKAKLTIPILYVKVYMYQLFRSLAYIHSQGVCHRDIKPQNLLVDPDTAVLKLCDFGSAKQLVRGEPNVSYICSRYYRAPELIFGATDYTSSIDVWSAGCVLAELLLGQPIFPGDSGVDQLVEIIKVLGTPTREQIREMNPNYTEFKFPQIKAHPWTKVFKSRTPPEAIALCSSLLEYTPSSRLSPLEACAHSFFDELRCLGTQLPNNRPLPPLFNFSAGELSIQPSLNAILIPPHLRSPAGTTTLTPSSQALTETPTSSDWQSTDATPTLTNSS
Experimental: as §1, §2, §3, §4, §5

MAPKAPK2 = MAPKAPK2 (Homo sapiens, UniProt P49137); experiment: CETSA in living HL-60 cells, immunoblot; assay type: cell-based; settings: for Top: top plateau of melting curve fit
MAPKAPK2, sequence (P49137 whole entry): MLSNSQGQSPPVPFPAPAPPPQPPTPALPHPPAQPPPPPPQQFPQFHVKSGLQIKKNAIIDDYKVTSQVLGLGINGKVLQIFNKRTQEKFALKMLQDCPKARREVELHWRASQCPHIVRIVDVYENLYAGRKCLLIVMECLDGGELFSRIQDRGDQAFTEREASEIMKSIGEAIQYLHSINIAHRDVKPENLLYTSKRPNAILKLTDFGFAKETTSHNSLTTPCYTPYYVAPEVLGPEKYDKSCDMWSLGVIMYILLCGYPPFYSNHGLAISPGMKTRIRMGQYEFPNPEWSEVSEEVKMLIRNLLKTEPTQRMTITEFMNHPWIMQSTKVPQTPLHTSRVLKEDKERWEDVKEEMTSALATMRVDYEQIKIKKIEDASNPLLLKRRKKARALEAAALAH
Experimental: as §1, §2, §3, §4, §5

MAPK14 = tested on: MAPK14; parameters: method as in Jafari et al., Nat. Protoc. 2014; settings: MAPK14, living HL-60 cells, ref Jafari et al., Nat. Protoc. 2014, cited from earlier work
[1] = MAPKAPK3, living cells, immunoblot
[2] = living HL-60 cells, 20 µM inhibitor, immunoblot
[3] = living HL-60 cells, 20 µM inhibitor, immunoblot, 20 µM
[4] = GSK-3α, living cells, immunoblot
[5] = living HL-60 cells, 20 µM inhibitor, immunoblot, read-out: ΔTm to DMSO (GSK-3α)
[6] = MAPKAPK2, living cells, immunoblot

SMILES	MAPKAPK2 phosphorylation (band pattern, PDEMS) (MAPKAPK2 phosphorylation)	Tm (MAPKAPK3; [1])	ΔTm to DMSO (MAPKAPK3; [1])	Tm (MAPKAPK3) (MAPKAPK3; [2])	ΔTm to DMSO (MAPKAPK3) (MAPKAPK3; [3])	Tm (GSK-3α; [4])	Tm (GSK-3α) (GSK-3α; [2])	ΔTm at 20 µM (GSK-3α; [5])	Tm (MAPKAPK2; [6])	ΔTm to DMSO (MAPKAPK2; [6])	Tm (MAPKAPK2) (MAPKAPK2; [2])	ΔTm to DMSO (MAPKAPK2) (MAPKAPK2; [3])	Tagg values (given as averages ± s.d.), AlphaScreen (MAPK14)	Tagg values (given as averages ± s.d.), Western blot (MAPK14)	ΔTm at 20 µM (MAPKAPK3; HL-60, read-out: ΔTm to DMSO (MAPKAPK3))	ΔTm at 20 µM (GSK-3α; HL-60, read-out: ΔTm to DMSO (GSK-3α))	ΔTm at 20 µM (MAPKAPK2; HL-60, read-out: ΔTm to DMSO (MAPKAPK2))	Top (MAPKAPK2; MAPKAPK2, living cells)	ΔTm to DMSO (GSK-3α; [4])
Cn1c(NC[C@@H](N)Cc2ccccc2)nc(-c2ccncc2)c(-c2ccc3ccccc3c2)c1=O [AMG-548]	inhibited apparent MAPKAPK2 phosphorylation	54.68 °C	6.62 °C	54.68 °C	6.6 °C and 6.62 °C	53.26 °C	53.26 °C	-0.71 °C	54.39 °C	5.18 °C	54.39 °C	5.2 °C and 5.18 °C	59.2 ± 0.9 °C	60.6 ± 1.0 °C					
Cc1cnc(Nc2ccc(F)cc2Cl)nc1-c1c[nH]c(C(=O)N[C@H](CO)c2cccc(Cl)c2)c1 [ERK 11e]	double band					54.11 °C	54.11 °C						no substantial response (same as DMSO)	no substantial response (same as DMSO)	0.26 °C	0.14 °C	-0.02 °C	36.1%	
C[S+]([O-])c1ccc(-c2nc(-c3ccncc3)c(-c3ccc(F)cc3)[nH]2)cc1 (stereo not shown) [SB203580]	inhibited apparent MAPKAPK2 phosphorylation	51.56 °C		51.56 °C		54.03 °C	54.03 °C	0.05 °C										87.0%	0.0529 °C
